# Data from PubChem BioAssay (NCI).
#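 Five concentrations, 48 hours, 96-well plates. TGI marks complete inhibition of growth.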 Where a SMILES comes first, the peptide text is derived from it. [ ]: non-standard residue; d: D form. The star is where a group is joined. ξ: configuration not given here. ξD = NC(CC(=O)O)C(=O)O; Ac3c = NC1(C(=O)O)CC1; Boc = CC(C)(C)OC(=O)*; OBn = c1ccc(CO*)cc1
# Legend:
# Assay in all cases: DTP human tumour cell line panel, 48 h
# A549 NSCLC = system: A549 NSCLC
# ACHN renal = system: ACHN renal
# BT-549 breast = system: BT-549 breast
# CAKI-1 renal = system: CAKI-1 renal
# EKVX NSCLC = system: EKVX NSCLC
# NCI-H522 lung = system: NCI-H522 lung
# SF-295 CNS = system: SF-295 CNS
# SK-MEL-2 melanoma = system: SK-MEL-2 melanoma
# SNB-19 CNS = system: SNB-19 CNS
# UACC-257 melanoma = system: UACC-257 melanoma
smiles,measurement,setting,value
C=CCN(c1cc(OCc2ccccc2)c(NC(C)=O)cc1[N+](=O)[O-])S(C)(=O)=O,TGI,A549 NSCLC,> 100 µM
same,TGI,ACHN renal,> 100 µM
same,TGI,BT-549 breast,93.3 µM
same,TGI,CAKI-1 renal,> 100 µM
same,TGI,EKVX NSCLC,33.8 µM
same,TGI,NCI-H522 lung,> 100 µM
same,TGI,SF-295 CNS,60.4 µM
same,TGI,SK-MEL-2 melanoma,73.1 µM
same,TGI,SNB-19 CNS,36.1 µM
same,TGI,UACC-257 melanoma,> 100 µM
Cc1cc(Nc2ccc(N=Nc3ccc(O)c4ncccc34)cc2)nc(C)n1,TGI,A549 NSCLC,38.3 µM
same,TGI,ACHN renal,> 77.9 µM
same,TGI,BT-549 breast,> 84.4 µM
same,TGI,CAKI-1 renal,71 µM
same,TGI,EKVX NSCLC,> 79.3 µM
same,TGI,NCI-H522 lung,55 µM
same,TGI,SF-295 CNS,> 80.4 µM
same,TGI,SK-MEL-2 melanoma,34.4 µM
same,TGI,SNB-19 CNS,> 100 µM
same,TGI,UACC-257 melanoma,43.8 µM
O=C(NC1(C(=O)NNc2nnc(-c3ccccc3)c(-c3ccccc3)n2)C(c2ccccc2)C(c2ccccc2)=NN1c1ccccc1)c1ccccc1 (stereo not given),TGI,A549 NSCLC,> 100 µM
same,TGI,ACHN renal,> 100 µM
same,TGI,BT-549 breast,> 100 µM
same,TGI,CAKI-1 renal,> 100 µM
same,TGI,EKVX NSCLC,> 100 µM
same,TGI,NCI-H522 lung,> 100 µM
same,TGI,SF-295 CNS,> 100 µM
same,TGI,SK-MEL-2 melanoma,> 100 µM
same,TGI,SNB-19 CNS,> 100 µM
same,TGI,UACC-257 melanoma,> 100 µM
O=c1[nH]c2ccccc2nc1/C=C(\O)C(F)F,TGI,A549 NSCLC,> 100 µM
same,TGI,ACHN renal,> 100 µM
same,TGI,BT-549 breast,> 100 µM
same,TGI,CAKI-1 renal,> 100 µM
same,TGI,EKVX NSCLC,> 100 µM
same,TGI,NCI-H522 lung,> 100 µM
same,TGI,SF-295 CNS,> 100 µM
same,TGI,SK-MEL-2 melanoma,> 100 µM
same,TGI,SNB-19 CNS,> 100 µM
same,TGI,UACC-257 melanoma,> 100 µM
COc1ccc(/C=C(\C(=C/c2ccc(OC)cc2)[N+](=O)[O-])[N+](=O)[O-])cc1,TGI,A549 NSCLC,> 61.3 µM
same,TGI,ACHN renal,17.1 µM
same,TGI,BT-549 breast,21.4 µM
same,TGI,CAKI-1 renal,8.87 µM
same,TGI,EKVX NSCLC,29.8 µM
same,TGI,NCI-H522 lung,8.8 µM
same,TGI,SF-295 CNS,30.2 µM
same,TGI,SK-MEL-2 melanoma,39.7 µM
same,TGI,SNB-19 CNS,30.2 µM
same,TGI,UACC-257 melanoma,17.1 µM
COC(=O)c1ccc(CCc2cc(O)ccc2O)cc1,TGI,A549 NSCLC,> 61.3 µM
same,TGI,ACHN renal,37.9 µM
same,TGI,BT-549 breast,25.6 µM
same,TGI,CAKI-1 renal,12.9 µM
same,TGI,EKVX NSCLC,32.4 µM
same,TGI,NCI-H522 lung,2.16 µM
same,TGI,SF-295 CNS,> 70.5 µM
same,TGI,SK-MEL-2 melanoma,55.6 µM
same,TGI,SNB-19 CNS,> 62.7 µM
same,TGI,UACC-257 melanoma,32.8 µM
O=C(c1ccccc1)c1c(C(F)(F)F)n([O-])c2cc(Cl)c(Cl)cc2[n+]1=O,TGI,A549 NSCLC,4.19 µM
same,TGI,ACHN renal,2.03 µM
same,TGI,BT-549 breast,4.8 µM
same,TGI,CAKI-1 renal,2.93 µM
same,TGI,EKVX NSCLC,6.96 µM
same,TGI,NCI-H522 lung,1.08 µM
same,TGI,SF-295 CNS,7.31 µM
same,TGI,SK-MEL-2 melanoma,7.7 µM
same,TGI,SNB-19 CNS,3 µM
same,TGI,UACC-257 melanoma,1.97 µM
Cc1cc(=O)n2nc(CSc3nnc(N)s3)sc2n1,TGI,A549 NSCLC,> 100 µM
same,TGI,ACHN renal,> 100 µM
same,TGI,BT-549 breast,> 100 µM
same,TGI,CAKI-1 renal,> 100 µM
same,TGI,EKVX NSCLC,> 100 µM
same,TGI,NCI-H522 lung,> 100 µM
same,TGI,SF-295 CNS,> 100 µM
same,TGI,SK-MEL-2 melanoma,> 100 µM
same,TGI,SNB-19 CNS,> 100 µM
same,TGI,UACC-257 melanoma,> 100 µM
NCCNCCCCCCNC(=O)c1cccc2cc3ccccc3nc12,TGI,A549 NSCLC,5.63 µM
same,TGI,ACHN renal,5.98 µM
same,TGI,BT-549 breast,25.2 µM
same,TGI,CAKI-1 renal,18.5 µM
same,TGI,EKVX NSCLC,20.9 µM
same,TGI,NCI-H522 lung,4.52 µM
same,TGI,SF-295 CNS,10.6 µM
same,TGI,SK-MEL-2 melanoma,10.2 µM
same,TGI,SNB-19 CNS,9.58 µM
same,TGI,UACC-257 melanoma,15.2 µM
COC(=O)C1(NC(=O)C(CC(=O)OCc2ccccc2)NC(=O)OC(C)(C)C)CC1 (stereo not given) (Boc-[ξD](OBn)-[Ac3c]-OMe),TGI,A549 NSCLC,> 100 µM
same,TGI,ACHN renal,> 100 µM
same,TGI,BT-549 breast,> 100 µM
same,TGI,CAKI-1 renal,> 100 µM
same,TGI,EKVX NSCLC,> 100 µM
same,TGI,NCI-H522 lung,> 100 µM
same,TGI,SF-295 CNS,> 100 µM
same,TGI,SK-MEL-2 melanoma,> 100 µM
same,TGI,SNB-19 CNS,> 100 µM
same,TGI,UACC-257 melanoma,> 100 µM
CCOC(=O)C1=C(C)C(C(=O)OC)/C(=C/c2cccc3cccnc23)C1=O (stereo not given),TGI,A549 NSCLC,> 10 µM
same,TGI,ACHN renal,> 10 µM
same,TGI,BT-549 breast,> 10 µM
same,TGI,CAKI-1 renal,> 10 µM
same,TGI,EKVX NSCLC,> 10 µM
same,TGI,NCI-H522 lung,> 10 µM
same,TGI,SF-295 CNS,> 10 µM
same,TGI,SK-MEL-2 melanoma,> 10 µM
same,TGI,SNB-19 CNS,> 10 µM
same,TGI,UACC-257 melanoma,> 10 µM
Cc1ccc(C)c(COCCOCn2cc(Br)c(N)nc2=O)c1,TGI,A549 NSCLC,> 100 µM
same,TGI,ACHN renal,> 100 µM
same,TGI,BT-549 breast,> 100 µM
same,TGI,CAKI-1 renal,> 100 µM
same,TGI,EKVX NSCLC,> 100 µM
same,TGI,NCI-H522 lung,> 100 µM
same,TGI,SF-295 CNS,> 100 µM
same,TGI,SK-MEL-2 melanoma,> 100 µM
same,TGI,SNB-19 CNS,> 100 µM
same,TGI,UACC-257 melanoma,> 100 µM
Cc1cc(NS(=O)(=O)c2ccc(NC(=O)c3cccc4c(NNc5ccc(S(=O)(=O)N=C(N)N)cc5)c5ccccc5nc34)cc2)no1,TGI,A549 NSCLC,> 100 µM
same,TGI,ACHN renal,> 100 µM
same,TGI,BT-549 breast,> 100 µM
same,TGI,CAKI-1 renal,> 100 µM
same,TGI,EKVX NSCLC,93.2 µM
same,TGI,NCI-H522 lung,96.6 µM
same,TGI,SF-295 CNS,> 100 µM
same,TGI,SK-MEL-2 melanoma,64.2 µM
same,TGI,SNB-19 CNS,> 100 µM
same,TGI,UACC-257 melanoma,> 100 µM
N#CC(C#N)=Cc1c(O)ccc2ccccc12,TGI,A549 NSCLC,38 µM
same,TGI,ACHN renal,23.9 µM
same,TGI,BT-549 breast,32.1 µM
same,TGI,CAKI-1 renal,29.1 µM
same,TGI,EKVX NSCLC,26.3 µM
same,TGI,NCI-H522 lung,29.2 µM
same,TGI,SF-295 CNS,29.5 µM
same,TGI,SK-MEL-2 melanoma,37.8 µM
same,TGI,SNB-19 CNS,30.5 µM
same,TGI,UACC-257 melanoma,32.6 µM
O=C(Nc1nnc(-c2ccccc2)o1)C(SC(=S)N1CCOCC1)c1ccccc1 (stereo not given),TGI,A549 NSCLC,> 100 µM
same,TGI,ACHN renal,> 100 µM
same,TGI,BT-549 breast,> 100 µM
same,TGI,CAKI-1 renal,> 100 µM
same,TGI,EKVX NSCLC,55.5 µM
same,TGI,NCI-H522 lung,93.5 µM
same,TGI,SF-295 CNS,> 100 µM
same,TGI,SK-MEL-2 melanoma,> 100 µM
same,TGI,SNB-19 CNS,> 100 µM
same,TGI,UACC-257 melanoma,> 100 µM
O=c1[nH]c2cc3cccnc3c(Cl)c2nc1C(F)(F)F,TGI,A549 NSCLC,> 100 µM
same,TGI,ACHN renal,> 100 µM
same,TGI,BT-549 breast,86.7 µM
same,TGI,CAKI-1 renal,65.4 µM
same,TGI,EKVX NSCLC,> 100 µM
same,TGI,NCI-H522 lung,> 100 µM
same,TGI,SF-295 CNS,> 100 µM
same,TGI,SK-MEL-2 melanoma,> 100 µM
same,TGI,SNB-19 CNS,> 100 µM
same,TGI,UACC-257 melanoma,> 100 µM
Nc1ccc(-c2nc3cc(F)ccc3s2)cc1I,TGI,A549 NSCLC,> 100 µM
same,TGI,ACHN renal,24.6 µM
same,TGI,BT-549 breast,29.9 µM
same,TGI,CAKI-1 renal,72.5 µM
same,TGI,EKVX NSCLC,43.9 µM
same,TGI,NCI-H522 lung,33.2 µM
same,TGI,SF-295 CNS,> 56.6 µM
same,TGI,SK-MEL-2 melanoma,50.6 µM
same,TGI,SNB-19 CNS,54.9 µM
same,TGI,UACC-257 melanoma,> 100 µM
COc1cc(/C=C2\N=C(c3ccccc3)N(/N=C3\C(=O)Nc4ccccc43)C2=O)cc(OC)c1OC,TGI,A549 NSCLC,> 100 µM
same,TGI,ACHN renal,> 100 µM
same,TGI,BT-549 breast,> 100 µM
same,TGI,CAKI-1 renal,> 100 µM
same,TGI,EKVX NSCLC,> 100 µM
same,TGI,NCI-H522 lung,> 100 µM
same,TGI,SF-295 CNS,> 100 µM
same,TGI,SK-MEL-2 melanoma,> 100 µM
same,TGI,SNB-19 CNS,> 100 µM
same,TGI,UACC-257 melanoma,> 100 µM
